# Target: T1, PYL10 (Arabidopsis thaliana, UniProt Q8H1R0)
# T1 sequence (Q8H1R0 1-183): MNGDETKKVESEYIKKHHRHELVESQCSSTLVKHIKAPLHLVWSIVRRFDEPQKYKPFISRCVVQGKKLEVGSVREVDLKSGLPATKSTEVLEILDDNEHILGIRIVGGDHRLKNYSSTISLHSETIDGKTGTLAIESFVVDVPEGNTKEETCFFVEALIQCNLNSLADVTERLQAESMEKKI
# Assay: ITC at […] °C, pH […]; supported by 1H-15N HSQC NMR titration and HAB1 phosphatase assay
# Assay type: binding
smiles,measurement,value
CC1=CC(=O)CC(C)(C)[C@@]1(O)/C=C/C(C)=C\C(=O)O [abscisic acid],Kd,66.2 ± 13.9 µM
